Measured values published in US12427157B2, “Methods for treatment of diseases involving acidic or hypoxic diseased tissues” (Cybrexa 1, Inc., priority 2018, dated 2025).

Columns and labels:
PARP [1] = biological target: T1, PARP (Homo sapiens, UniProt P09874); experiment: Enzymatic Assay 2: HT Universal Chemiluminescent PARP Assay of cleaved compounds;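 note: PARP reaction with activated DNA run 1 h at room temperature, product detected via streptavidin-HRP and luminescence endpoint reading on a plate reader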
T1 sequence (P09874 whole entry): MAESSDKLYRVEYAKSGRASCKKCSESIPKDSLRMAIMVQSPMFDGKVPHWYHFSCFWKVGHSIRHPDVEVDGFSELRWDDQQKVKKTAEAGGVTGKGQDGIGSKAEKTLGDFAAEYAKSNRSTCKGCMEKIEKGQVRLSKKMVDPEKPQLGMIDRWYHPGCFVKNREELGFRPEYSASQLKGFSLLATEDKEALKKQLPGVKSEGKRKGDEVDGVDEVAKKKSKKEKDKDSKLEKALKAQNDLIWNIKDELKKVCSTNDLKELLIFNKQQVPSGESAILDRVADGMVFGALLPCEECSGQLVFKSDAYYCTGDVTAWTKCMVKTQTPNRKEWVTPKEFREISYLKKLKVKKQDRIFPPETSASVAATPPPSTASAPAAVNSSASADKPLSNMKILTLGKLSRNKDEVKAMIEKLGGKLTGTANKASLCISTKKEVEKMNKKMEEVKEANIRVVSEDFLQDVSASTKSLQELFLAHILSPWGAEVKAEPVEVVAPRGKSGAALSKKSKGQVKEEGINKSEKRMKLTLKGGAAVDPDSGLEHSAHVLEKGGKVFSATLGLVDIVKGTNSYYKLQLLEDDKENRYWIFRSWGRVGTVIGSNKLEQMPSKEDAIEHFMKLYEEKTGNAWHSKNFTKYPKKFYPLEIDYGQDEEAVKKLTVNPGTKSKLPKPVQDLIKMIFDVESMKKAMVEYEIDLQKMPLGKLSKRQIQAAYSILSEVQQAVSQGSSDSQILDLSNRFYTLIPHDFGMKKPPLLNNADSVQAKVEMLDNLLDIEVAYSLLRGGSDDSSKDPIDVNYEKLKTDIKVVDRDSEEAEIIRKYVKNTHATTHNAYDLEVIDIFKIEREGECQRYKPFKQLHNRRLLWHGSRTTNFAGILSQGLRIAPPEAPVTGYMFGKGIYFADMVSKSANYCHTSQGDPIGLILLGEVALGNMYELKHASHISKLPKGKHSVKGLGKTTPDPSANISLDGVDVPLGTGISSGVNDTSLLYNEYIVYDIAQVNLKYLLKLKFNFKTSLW
Method: An equal volume of 1×PARP cocktail containing activated DNA was added to each well and the reaction was incubated for one hour at room temperature. The wells were washed twice with 1×PBS+0.1% Triton X-100 and twice with PBS. 50 ul/well of diluted streptavidin-HRP was added and the wells were incubated for one hour at room temperature. The wells were washed twice with 1×PBS+0.1% Triton X-100 and washed twice with PBS. The liquid was 5 removed, 100 ul/well 1:1 PeroxyGlow A/PeroxyGlow B was added and the chemiluminescent readings were measured on a BioTek Cytation 5 plate reader using the luminescence fiber endpoint.

PARP [2] = biological target: T1, PARP; experiment: Enzymatic Assay 1: HT F Homogeneous PARP Inhibition Assay of cleaved compounds; assay type: biochemical; set-up: purchased Trevigen #4690-096-K (Assay 1); #4676-096-K (Assay 2)
DLD-1 BRCA2−/− cells = experiment: Growth delay assay; assay type: cell-based, Human; details: pH 7.4, BRCA (−/−) DLD-1, 96 h
Method: Cells were plated in 96 well black walled-clear bottom plates (Griener), DLD-1 WT cells at 2500 cells per well, DLD-1 BRCA2−/− at 5000 cells per well, in growth media containing 10% FBS. Cells were allowed to adhere at room temperature for 60 minutes before returning to a 37 C, 5% CO2 incubator. After 24 hours, media was removed and replaced with fresh growth media containing various drug concentrations. Each drug concentration was added in triplicate. Non-drug treated controls contained growth media only. Cells were returned to the incubator. Ninety-six hours after addition of drug, cells were fixed with 4% paraformaldehyde for 20 minutes and stained with Hoechst at 1 ug/mL. The plates were imaged on a Cytation 5 auto imager (BioTek) and cells were counted using CellProfiler (http://cellprofiler.org). The percent cell growth delay was calculated and data plotted using GraphPad Prism.

[3] = read-out: IC50 Enzymatic Assay 2, Examples cleaved per Example A (crude cleavage solution), R^8H starting materials as such

IC50 (PARP [1]) | IC50 (PARP [2]; Examples cleaved per Example A (crude cleavage solution); R^8H starting materials as such; 1 uM NAD; read-out: IC50 Enzymatic Assay 1) | Structure (SMILES) | IC50 (PARP [1]; [3]) | IC50 (PARP [2]; read-out: IC50 Enzymatic Assay 1; Examples cleaved per Example A (crude cleavage solution); R^8H starting materials as such; 1 uM NAD) | IC50 (DLD-1 BRCA2−/− cells)
– | – | CC(C)C[C@H](NC(=O)[C@H](Cc1ccc(O)cc1)NC(=O)[C@H](C)NC(=O)[C@H](CCCNC(=N)N)NC(=O)[C@H](Cc1c[nH]c2ccccc12)NC(=O)[C@@H]1CCCN1C(=O)[C@H](CC(N)=O)NC(=O)[C@H](CCC(N)=O)NC(=O)[C@H](CC(=O)O)NC(=O)[C@H](CC(=O)O)NC(=O)[C@H](C)N)C(=O)N[C@@H](CC(=O)O)C(=O)N[C@@H](CC(C)C)C(=O)N[C@@H](CC(C)C)C(=O)N[C@@H](Cc1ccccc1)C(=O)N1CCC[C@H]1C(=O)N[C@H](C(=O)N[C@@H](CC(=O)O)C(=O)N[C@H](C(=O)N[C@@H](CC(C)C)C(=O)N[C@@H](CC(C)C)C(=O)N[C@@H](CC(C)C)C(=O)N[C@@H](CC(=O)O)C(=O)N[C@@H](CC(C)C)C(=O)N[C@@H](CC(C)C)C(=O)N[C@@H](Cc1c[nH]c2ccccc12)C(=O)N[C@@H](CC(=O)O)C(=O)N[C@@H](C)C(=O)N[C@@H](CC(=O)O)C(=O)N[C@@H](CCC(=O)O)C(=O)N[C@@H](CSS[C@H](C)COC(=O)OCc1ccc(-c2nc3c(C(N)=O)cccc3[nH]2)cc1)C(=O)NCC(=O)O)[C@@H](C)O)[C@@H](C)O [Example 7] | 6.45 nM | 111 nM | –
– | – | CC(C)C[C@H](NC(=O)[C@H](Cc1ccc(O)cc1)NC(=O)[C@H](C)NC(=O)[C@H](CCCNC(=N)N)NC(=O)[C@H](Cc1c[nH]c2ccccc12)NC(=O)[C@@H]1CCCN1C(=O)[C@H](CC(N)=O)NC(=O)[C@H](CCC(N)=O)NC(=O)[C@H](CC(=O)O)NC(=O)[C@H](CC(=O)O)NC(=O)[C@H](C)N)C(=O)N[C@@H](CC(=O)O)C(=O)N[C@@H](CC(C)C)C(=O)N[C@@H](CC(C)C)C(=O)N[C@@H](Cc1ccccc1)C(=O)N1CCC[C@H]1C(=O)N[C@H](C(=O)N[C@@H](CC(=O)O)C(=O)N[C@H](C(=O)N[C@@H](CC(C)C)C(=O)N[C@@H](CC(C)C)C(=O)N[C@@H](CC(C)C)C(=O)N[C@@H](CC(=O)O)C(=O)N[C@@H](CC(C)C)C(=O)N[C@@H](CC(C)C)C(=O)N[C@@H](Cc1c[nH]c2ccccc12)C(=O)N[C@@H](CC(=O)O)C(=O)N[C@@H](C)C(=O)N[C@@H](CC(=O)O)C(=O)N[C@@H](CCC(=O)O)C(=O)N[C@@H](CSS[C@H](C)COC(=O)NCN1c2cc(F)cc3c(=O)[nH]nc(c23)[C@H](c2ncnn2C)[C@H]1c1ccc(F)cc1)C(=O)NCC(=O)O)[C@@H](C)O)[C@@H](C)O [Example 41] | 1.9 nM | – | 43 nM
– | – | CC(C)C[C@H](NC(=O)[C@H](Cc1ccc(O)cc1)NC(=O)[C@H](C)NC(=O)[C@H](CCCNC(=N)N)NC(=O)[C@H](Cc1c[nH]c2ccccc12)NC(=O)[C@@H]1CCCN1C(=O)[C@H](CC(N)=O)NC(=O)[C@H](CCC(N)=O)NC(=O)[C@H](CC(=O)O)NC(=O)[C@H](CC(=O)O)NC(=O)[C@H](C)N)C(=O)N[C@@H](CC(=O)O)C(=O)N[C@@H](CC(C)C)C(=O)N[C@@H](CC(C)C)C(=O)N[C@@H](Cc1ccccc1)C(=O)N1CCC[C@H]1C(=O)N[C@H](C(=O)N[C@@H](CC(=O)O)C(=O)N[C@H](C(=O)N[C@@H](CC(C)C)C(=O)N[C@@H](CC(C)C)C(=O)N[C@@H](CC(C)C)C(=O)N[C@@H](CC(=O)O)C(=O)N[C@@H](CC(C)C)C(=O)N[C@@H](CC(C)C)C(=O)N[C@@H](Cc1c[nH]c2ccccc12)C(=O)N[C@@H](CSS[C@H](C)COC(=O)NCN1c2cc(F)cc3c(=O)[nH]nc(c23)[C@H](c2ncnn2C)[C@H]1c1ccc(F)cc1)C(=O)NCC(=O)O)[C@@H](C)O)[C@@H](C)O [Example 40] | 1.1 nM | – | 64 nM
6.4 nM | 96.8 nM | NC(=O)c1cccc2[nH]c(-c3ccc(CO)cc3)nc12 [R^8H-1, 2-[4-(hydroxymethyl)phenyl]-1H-benzimidazole-4-carboxamide, reference compound] | – | – | –
